According to paper PMC7878891 (Scientific Reports, 2021):

Columns and labels:
[1] = biological target: PL^proCoV2 (recombinant SARS-CoV-2 PL^pro) (Severe acute respiratory syndrome coronavirus 2, UniProt P0DTD1); assay type: biochemical; details: for IC50: read-out: IC50 toward PL^proCoV2
[2] = biological target: PL^proSARS (recombinant SARS-CoV-1 PL^pro) (Severe acute respiratory syndrome coronavirus, UniProt P0C6X7); experiment: biochemical; assay type: biochemical
PL^proCoV2 = PL^proCoV2 (Severe acute respiratory syndrome coronavirus 2, UniProt P0DTD1); assay type: biochemical, SARS-CoV-2
PL^proSARS = PL^proSARS (Severe acute respiratory syndrome coronavirus, UniProt P0C6X7); assay type: biochemical, SARS-CoV-1
CoV2 = details: read-out: EC50 antiviral activity in cell-based assay; cited from earlier work

For `O=c1c2ccccc2[se]n1-c1ccccc1O` [1d, 2-(2-Hydroxyphenyl)-1,2-benzisoselenazol-3(2H)-one], the “Inhibition of PL^proCoV2 at 2 μM” value [1] was “fully” and the IC50 [1] was 236 nM.

For `COc1ccccc1-n1[se]c2ccccc2c1=O` [1e, 2-(2-Methoxyphenyl)-1,2-benzisoselenazol-3(2H)-one], the “Inhibition of PL^proCoV2 at 2 μM” value [1] was “fully” and the IC50 [1] was 256 ± 35 nM.

Compound `O=C(Nc1ccccc1O)c1ccccc1[Se][Se]c1ccccc1C(=O)Nc1ccccc1O` [2d, Bis[2-(2-hydroxyphenylcarbamoyl)phenyl] diselenide] has an IC50 [1] of 339 ± 109 nM.

Work on `COc1ccccc1NC(=O)c1ccccc1[Se][Se]c1ccccc1C(=O)Nc1ccccc1OC` [2e, Bis[2-(2-methoxyphenylcarbamoyl)phenyl] diselenide] yielded an IC50 [1] of 263 ± 121 nM.

In the case of `O=c1c2ccccc2[se]n1-c1ccccc1` [ebselen, 2-Phenyl-1,2-benzisoselenazol-3(2H)-one], the “Mechanism of inhibition of PL^proCoV2” value [1] is reported as “irreversible”, the “Mechanism of inhibition of PL^proSARS” value [2] is reported as “irreversible” and the IC50 ([2]; IC50 PL^proSARS 60 min incubation) is reported as 8450 ± 960 nM. The IC50 ([2]; IC50 PL^proSARS no incubation) was over 200000 nM, the “Reactivation of PL^proCoV2 after dialysis” value (PL^proCoV2) was “reactivation was not observed” and the “Reactivation of PL^proSARS after dialysis” value (PL^proSARS) was “reactivation was not observed”. The EC50 (CoV2) was 4670 nM.
